Oligonucleotides are written 5' to 3', each unit as a sugar letter and its base; * is a phosphorothioate linkage, no mark a phosphodiester; rarer units and linkages stand in square brackets, end groups in braces. Plain capitals give the bases only. d = 2'-deoxy (DNA); r = 2'-OH (RNA)
Note: test concentration or dose not given here.

For this data set, the target named is UBE2E3. Put plainly: reporter assay of Huesken 2005. The conditions noted are these: siRNA.
Regarding “sense rArArCrArGrUrCrArGrGrGrArGrUrCrArUrCrUdTdT / antisense rArGrArUrGrArCrUrCrCrCrUrGrArCrUrGrUrUdGdA”, the normalised inhibition (eCFP-eYFP dual reporter) is 58.5%.

The substance “sense rCrArGrUrGrGrCrArGrUrUrCrArGrArUrGrCrGdTdT / antisense rCrGrCrArUrCrUrGrArArCrUrGrCrCrArCrUrGdCdT” displayed a normalised inhibition (eCFP-eYFP dual reporter) of 53%.

As for “sense rArUrUrUrGrUrUrCrCrCrUrUrUrUrGrArCrArGdTdT / antisense rCrUrGrUrCrArArArArGrGrGrArArCrArArArUdAdG”, the normalised inhibition (eCFP-eYFP dual reporter) was found to be 47.8%.

For the substance “sense rUrCrUrCrUrArGrCrArArArArCrCrArCrUrGrCdTdT / antisense rGrCrArGrUrGrGrUrUrUrUrGrCrUrArGrArGrAdGdT”, the normalised inhibition (eCFP-eYFP dual reporter) turned out to be 35.9%.

For “sense rArArGrGrArGrArUrArArCrArUrUrUrArUrGrAdTdT / antisense rUrCrArUrArArArUrGrUrUrArUrCrUrCrCrUrUdTdA”, the normalised inhibition (eCFP-eYFP dual reporter) turned out to be 52%.

“sense rCrGrArCrArGrGrArUrArGrCrCrArGrArCrArGdTdT / antisense rCrUrGrUrCrUrGrGrCrUrArUrCrCrUrGrUrCrGdTdG” had a normalised inhibition (eCFP-eYFP dual reporter) of 78%.

As to “sense rGrGrArGrUrCrArUrCrUrGrUrCrUrGrGrArCrAdTdT / antisense rUrGrUrCrCrArGrArCrArGrArUrGrArCrUrCrCdCdT”, the normalised inhibition (eCFP-eYFP dual reporter) was determined as 75.6%.

Consider “sense rGrUrCrArGrGrGrArGrUrCrArUrCrUrGrUrCrUdTdT / antisense rArGrArCrArGrArUrGrArCrUrCrCrCrUrGrArCdTdG”, for which the normalised inhibition (eCFP-eYFP dual reporter) was 83.4%.

“sense rUrGrArArGrArArCrArArGrArGrGrArArArGrAdTdT / antisense rUrCrUrUrUrCrCrUrCrUrUrGrUrUrCrUrUrCrAdGdG” came in with a normalised inhibition (eCFP-eYFP dual reporter) of 89.3%.

As for “sense rGrArArGrGrArGrCrUrArGrCrUrGrArArArUrAdTdT / antisense rUrArUrUrUrCrArGrCrUrArGrCrUrCrCrUrUrCdTdG”, the normalised inhibition (eCFP-eYFP dual reporter) is 88.5%.

With “sense rUrCrArArCrArGrUrCrArGrGrGrArGrUrCrArUdTdT / antisense rArUrGrArCrUrCrCrCrUrGrArCrUrGrUrUrGrAdTdG”, the normalised inhibition (eCFP-eYFP dual reporter) amounted to 74.7%.

“sense rUrCrArGrGrGrArGrUrCrArUrCrUrGrUrCrUrGdTdT / antisense rCrArGrArCrArGrArUrGrArCrUrCrCrCrUrGrAdCdT” yielded a normalised inhibition (eCFP-eYFP dual reporter) of 49%.

As for “sense rCrCrUrUrGrArUrCrCrUrCrCrUrCrCrUrArArUdTdT / antisense rArUrUrArGrGrArGrGrArGrGrArUrCrArArGrGdGdT”, the normalised inhibition (eCFP-eYFP dual reporter) is 81.6%.

With “sense rCrUrCrCrUrArArUrUrGrCrArGrUrGrCrUrGrGdTdT / antisense rCrCrArGrCrArCrUrGrCrArArUrUrArGrGrArGdGdA”, the normalised inhibition (eCFP-eYFP dual reporter) is 51.1%.

For the substance “sense rArGrUrCrCrCrGrCrUrUrUrGrArCrUrArUrUrUdTdT / antisense rArArArUrArGrUrCrArArArGrCrGrGrGrArCrUdCdC”, the normalised inhibition (eCFP-eYFP dual reporter) turned out to be 56.7%.

On to “sense rUrGrArArUrGrGrArGrArUrCrArArCrUrArUrAdTdT / antisense rUrArUrArGrUrUrGrArUrCrUrCrCrArUrUrCrAdTdA”, for which the normalised inhibition (eCFP-eYFP dual reporter) turned out to be 90.5%.

Substance “sense rCrUrGrGrArGrUrCrCrCrGrCrUrUrUrGrArCrUdTdT / antisense rArGrUrCrArArArGrCrGrGrGrArCrUrCrCrArGdTdT” gave a normalised inhibition (eCFP-eYFP dual reporter) of 72%.

In turn, “sense rArUrCrArCrUrGrCrArArCrArUrCrArArCrArGdTdT / antisense rCrUrGrUrUrGrArUrGrUrUrGrCrArGrUrGrArUdAdG” yielded a normalised inhibition (eCFP-eYFP dual reporter) of 69.7%.

“sense rArUrCrArArCrUrArUrArCrUrUrGrGrUrCrCrAdTdT / antisense rUrGrGrArCrCrArArGrUrArUrArGrUrUrGrArUdCdT” showed a normalised inhibition (eCFP-eYFP dual reporter) of 59.5%.

“sense rCrCrArArCrArGrArGrCrArGrArArCrArCrGrAdTdT / antisense rUrCrGrUrGrUrUrCrUrGrCrUrCrUrGrUrUrGrGdTdC” returned a normalised inhibition (eCFP-eYFP dual reporter) of 88.8%.

In turn, “sense rCrArCrCrArArArGrGrUrUrArCrUrUrUrCrCrGdTdT / antisense rCrGrGrArArArGrUrArArCrCrUrUrUrGrGrUrGdGdC” had a normalised inhibition (eCFP-eYFP dual reporter) of 58.8%.

With “sense rGrGrUrUrArCrUrUrUrCrCrGrCrArCrCrArGrAdTdT / antisense rUrCrUrGrGrUrGrCrGrGrArArArGrUrArArCrCdTdT”, the normalised inhibition (eCFP-eYFP dual reporter) came out at 91.4%.

“sense rCrUrUrGrGrUrCrCrArCrCrGrGrGrUrUrCrUrGdTdT / antisense rCrArGrArArCrCrCrGrGrUrGrGrArCrCrArArGdTdA” showed a normalised inhibition (eCFP-eYFP dual reporter) of 68.4%.

“sense rUrGrCrUrGrUrCrUrArUrUrUrGrUrUrCrCrCrUdTdT / antisense rArGrGrGrArArCrArArArUrArGrArCrArGrCrAdAdA” had a normalised inhibition (eCFP-eYFP dual reporter) of 73.4%.

For the substance “sense rArGrCrUrGrArArArUrArArCrCrCrUrUrGrArUdTdT / antisense rArUrCrArArGrGrGrUrUrArUrUrUrCrArGrCrUdAdG”, the normalised inhibition (eCFP-eYFP dual reporter) stood at 82%.

In the case of “sense rUrCrArGrArUrUrArUrCrCrArUrUrUrArArGrCdTdT / antisense rGrCrUrUrArArArUrGrGrArUrArArUrCrUrGrAdTdG”, the normalised inhibition (eCFP-eYFP dual reporter) came to 38.2%.

Consider “sense rGrCrUrGrGrGrCrCrUrArArArGrGrArGrArUrAdTdT / antisense rUrArUrCrUrCrCrUrUrUrArGrGrCrCrCrArGrCdAdC”, for which the normalised inhibition (eCFP-eYFP dual reporter) worked out at 67.2%.

Turning to “sense rArArUrUrCrArGrArArGrGrArGrCrUrArGrCrUdTdT / antisense rArGrCrUrArGrCrUrCrCrUrUrCrUrGrArArUrUdCdT”, the normalised inhibition (eCFP-eYFP dual reporter) is 71.2%.

“sense rUrArArArGrArCrArArCrUrGrGrArGrUrCrCrCdTdT / antisense rGrGrGrArCrUrCrCrArGrUrUrGrUrCrUrUrUrAdAdG” gave a normalised inhibition (eCFP-eYFP dual reporter) of 43.8%.

Turning to “sense rArCrArCrCrArArArCrUrCrUrCrUrArGrCrArAdTdT / antisense rUrUrGrCrUrArGrArGrArGrUrUrUrGrGrUrGrUdTdT”, the normalised inhibition (eCFP-eYFP dual reporter) was found to be 90.1%.

“sense rUrGrCrUrArArGrUrUrArUrCrCrArCrUrArGrUdTdT / antisense rArCrUrArGrUrGrGrArUrArArCrUrUrArGrCrAdGdT”: the normalised inhibition (eCFP-eYFP dual reporter) is 82.8%.

Consider “sense rCrArCrCrArArArCrUrCrUrCrUrArGrCrArArAdTdT / antisense rUrUrUrGrCrUrArGrArGrArGrUrUrUrGrGrUrGdTdT”, for which the normalised inhibition (eCFP-eYFP dual reporter) is 84.2%.

Substance “sense rArCrUrGrCrArArCrCrCrUrGrCrGrGrArUrCrCdTdT / antisense rGrGrArUrCrCrGrCrArGrGrGrUrUrGrCrArGrUdCdT” returned a normalised inhibition (eCFP-eYFP dual reporter) of 71.1%.

As for “sense rGrCrArArCrArUrCrArArCrArGrUrCrArGrGrGdTdT / antisense rCrCrCrUrGrArCrUrGrUrUrGrArUrGrUrUrGrCdAdG”, the normalised inhibition (eCFP-eYFP dual reporter) amounted to 66.1%.

“sense rArArCrArGrArGrCrArGrArArCrArCrGrArCrAdTdT / antisense rUrGrUrCrGrUrGrUrUrCrUrGrCrUrCrUrGrUrUdGdG” registered a normalised inhibition (eCFP-eYFP dual reporter) of 76.9%.

With “sense rArCrArGrGrArUrArGrCrCrArGrArCrArGrUrGdTdT / antisense rCrArCrUrGrUrCrUrGrGrCrUrArUrCrCrUrGrUdCdG”, the normalised inhibition (eCFP-eYFP dual reporter) came to 55.2%.

“sense rCrArCrUrCrArGrUrArUrUrUrGrArCrCrArArCdTdT / antisense rGrUrUrGrGrUrCrArArArUrArCrUrGrArGrUrGdGdC”: the normalised inhibition (eCFP-eYFP dual reporter) is 87.1%.

Consider “sense rUrUrArUrCrCrArUrUrUrArArGrCrCrArCrCrAdTdT / antisense rUrGrGrUrGrGrCrUrUrArArArUrGrGrArUrArAdTdC”, for which the normalised inhibition (eCFP-eYFP dual reporter) is 28.7%.

For “sense rArArArGrGrUrUrArCrUrUrUrCrCrGrCrArCrCdTdT / antisense rGrGrUrGrCrGrGrArArArGrUrArArCrCrUrUrUdGdG”, the normalised inhibition (eCFP-eYFP dual reporter) is 50.7%.

Substance “sense rUrGrCrGrGrArUrCrCrUrCrUrGrGrUrUrGrGrAdTdT / antisense rUrCrCrArArCrCrArGrArGrGrArUrCrCrGrCrAdGdG” showed a normalised inhibition (eCFP-eYFP dual reporter) of 75.8%.

“sense rUrCrArGrArArGrGrArGrCrUrArGrCrUrGrArAdTdT / antisense rUrUrCrArGrCrUrArGrCrUrCrCrUrUrCrUrGrAdAdT” gave a normalised inhibition (eCFP-eYFP dual reporter) of 87.4%.

“sense rUrArUrUrUrGrUrUrCrCrCrUrUrUrUrGrArCrAdTdT / antisense rUrGrUrCrArArArArGrGrGrArArCrArArArUrAdGdA” came in with a normalised inhibition (eCFP-eYFP dual reporter) of 45.2%.

“sense rUrArCrUrUrUrCrCrGrCrArCrCrArGrArArUrCdTdT / antisense rGrArUrUrCrUrGrGrUrGrCrGrGrArArArGrUrAdAdC”: the normalised inhibition (eCFP-eYFP dual reporter) was 49.2%.

As for “sense rGrArCrCrArGrCrGrArGrArCrCrCrArGrCrCrGdTdT / antisense rCrGrGrCrUrGrGrGrUrCrUrCrGrCrUrGrGrUrCdCdG”, the normalised inhibition (eCFP-eYFP dual reporter) worked out at 54.7%.

For “sense rArArArArCrCrUrUrCrUrGrCrCrArCrCrCrArGdTdT / antisense rCrUrGrGrGrUrGrGrCrArGrArArGrGrUrUrUrUdCdT”, the normalised inhibition (eCFP-eYFP dual reporter) was determined as 32.1%.

For the substance “sense rUrGrUrCrUrArUrUrUrGrUrUrCrCrCrUrUrUrUdTdT / antisense rArArArArGrGrGrArArCrArArArUrArGrArCrAdGdC”, the normalised inhibition (eCFP-eYFP dual reporter) was found to be 86%.

“sense rCrGrCrArCrCrArGrArArUrCrUrArUrCrArCrUdTdT / antisense rArGrUrGrArUrArGrArUrUrCrUrGrGrUrGrCrGdGdA” gave a normalised inhibition (eCFP-eYFP dual reporter) of 73.4%.

On to “sense rArGrArUrCrArArCrUrArUrArCrUrUrGrGrUrCdTdT / antisense rGrArCrCrArArGrUrArUrArGrUrUrGrArUrCrUdCdC”, for which the normalised inhibition (eCFP-eYFP dual reporter) worked out at 52.8%.

Substance “sense rGrGrArGrCrUrArGrCrUrGrArArArUrArArCrCdTdT / antisense rGrGrUrUrArUrUrUrCrArGrCrUrArGrCrUrCrCdTdT” displayed a normalised inhibition (eCFP-eYFP dual reporter) of 80.5%.

The record behind these values is the OligoGym collection.
